Data: publication PMC5996347, “2-Mercapto-Quinazolinones as Inhibitors of Type II NADH Dehydrogenase and Mycobacterium tuberculosis: Structure–Activity Relationships, Mechanism of Action and Absorption, Distribution, Metabolism, and Excretion Characterization” (ACS Infectious Diseases, 2018)
Values after ≈ are worked out from the molar mass of the structure shown. Read-outs that look alike come from different tables or passages of the source.

What was measured:
[1] = system: M. tuberculosis H37Rv; experiment: microbe, parasite or virus in culture; assay type: cell-based; details: Mycobacterium tuberculosis
[2] = Mouse pharmacokinetics; assay type: in vivo, female C57Bl/6 mice; details: for AUC(0-t) / Cmax: 10 mg/kg; for AUC: whole blood, single rising oral dose
Protocol: Test compound was dosed as a bolus solution intravenously at 3 mg free base/kg (dose volume: 5 mL/kg; dose vehicle: 10% DMSO; 40% PEG400; 50% saline) to female C57Bl/6 mice (n = 3) or dosed orally by gavage as a suspension at 10 or at 5, 30, or 100 mg free base/kg (dose volume: 10 mL/kg; dose vehicle: 1.0% carboxy methyl cellulose) to female C57Bl/6 mice (n = 3/dose level). Blood samples were taken from each mouse tail vein at predetermined time points postdose, mixed with nine volumes of distilled water, and stored frozen until UPLC-MS/MS analysis. Pharmacokinetic parameters were derived from the blood concentration time curve using PK Solutions software v 2.0 (Summit Research Services, USA).

[3] = target: T1, recombinant MBP-MtNdh (MTb NDH-2) (Mycobacterium tuberculosis, UniProt P95160); experiment: Ndh activity assay (NADH oxidation at 340 nm); assay type: biochemical; details: NADH 250 μM, Q2 40 μM; mean ± SD, Figure 6 inset; read-out: IC50 against MBP-MtNdh
T1 construct: The ORF corresponding to Rv1854c was codon optimized for E. coli; made in house; host or cells: E. coli BL21 (DE3) pLysS
T1 sequence (P95160 whole entry): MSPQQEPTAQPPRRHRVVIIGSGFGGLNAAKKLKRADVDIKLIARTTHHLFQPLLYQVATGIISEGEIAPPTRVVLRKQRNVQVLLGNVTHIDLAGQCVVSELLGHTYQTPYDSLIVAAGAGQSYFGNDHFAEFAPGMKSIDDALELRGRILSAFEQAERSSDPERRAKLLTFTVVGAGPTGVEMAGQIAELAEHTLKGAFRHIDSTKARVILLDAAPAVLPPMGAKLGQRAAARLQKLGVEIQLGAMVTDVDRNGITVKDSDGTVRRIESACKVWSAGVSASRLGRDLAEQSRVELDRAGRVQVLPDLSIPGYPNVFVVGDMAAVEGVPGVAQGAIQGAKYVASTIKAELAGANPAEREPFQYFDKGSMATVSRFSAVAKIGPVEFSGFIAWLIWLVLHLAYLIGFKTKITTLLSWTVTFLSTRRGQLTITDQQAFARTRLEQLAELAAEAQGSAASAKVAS

[4] = assay type: in vitro ADME; details: mouse, plasma
Protocol: In brief, a 96-well equilibrium dialysis apparatus was used to determine the free fraction in plasma for each compound (HT Dialysis LLC, Gales Ferry, CT). Membranes (12–14 kDaA cutoff) were conditioned in deionized water for 60 min, followed by conditioning in 80:20 deionized water/ethanol overnight and then rinsed in water and isotonic buffer before use. Mouse plasma from appropriate species was removed from the freezer and allowed to thaw on the day of experiment. Thawed plasma was then centrifuged (Allegra X12-R, Beckman Coulter, USA) and spiked with test compound (final concentration 10 μg/mL), and 150 μL aliquots (n = 3 replicate determinations) were loaded into the 96-well equilibrium dialysis plate. Dialysis against isotonic buffer (150 μL) was carried out for 5 h in a temperature controlled incubator at ca. 37 °C (Barworld scientific Ltd., UK) using an orbital microplate shaker at 100 rpm (Barworld scientific Ltd., UK). At the end of the incubation period, 50 μL aliquots of plasma or buffer were transferred into a 96-well deep plate and the composition in each well was balanced with control fluid (50 μL), such that the volume of buffer to plasma is the same. Sample extraction was performed by the addition of 200 μL of acetonitrile containing an appropriate internal standard. Samples were allowed to mix for 1 min and then centrifuged at 3000 rpm in 96-well blocks for 15 min (Allegra X12-R, Beckman Coulter, USA) after which 150 μL of supernatant was removed to 50 μL of water. All samples were analyzed by UPLC-MS/MS on a Quattro Premier XE Mass Spectrometer (Waters Corporation, USA). The unbound fraction was determined as the ratio of the peak area in buffer to that in plasma.

[5] = physchem; assay type: physicochemical; details: pH 7.4
Protocol: The chromatographic hydrophobicity index (CHI) was determined according the method previously described.[43],[44] Briefly, test compounds were prepared as 0.5 mM solutions in 50:50 acetonitrile/water and analyzed by reversed-phase HPLC-UV (wavelength 254 nm) using a Phenomenex Luna C18 100 Å, 150 × 4.6 mm, 5 μm column with a gradient of aqueous phase (50 mM ammonium acetate (pH 7.4)) and mobile phase (acetonitrile). By plotting the retention time of a set of reference compounds against known CHI values, the CHI value of test compounds was calculated according to their retention time.

[6] = physchem; assay type: physicochemical; details: for solubility kinetic: water, kinetic from dmso stock
Protocol: The aqueous solubility of the test compounds was measured using laser nephelometry. Compounds were subject to serial dilution from 10 to 0.5 mM in DMSO. An aliquot was then mixed with Milli-Q water to obtain an aqueous dilution plate with a final concentration range of 250–12 μM, with a final DMSO concentration of 2.5%. Triplicate aliquots were transferred to a flat bottomed polystyrene plate which was immediately read on the NEPHELOstar (BMG Lab Technologies). The amount of laser scatter caused by insoluble particulates (relative nephelometry units, RNU) was plotted against compound concentration using a segmental regression fit, with the point of inflection being quoted as the compounds aqueous solubility (μM).

[7] = system: HepG2; experiment: cells; details: Homo sapiens, HepG2, read-out: HepG2 IC50
[8] = in vitro; assay type: in vitro ADME; details: PAMPA, pH 7.4
Protocol: The permeability was performed using a 96-well precoated BD Gentest PAMPA plate (BD Biosciences, U.K.). Each well was divided into two chambers: donor and acceptor, separated by a lipid-oil-lipid trilayer constructed in a porous filter. The effective permeability, Pe, of the compound was measured at pH 7.4. Stock solutions (5 mM) of the compound were prepared in DMSO. The compound was then further diluted to 10 μM in phosphate buffered saline at pH 7.4. […] The compound dissolved in phosphate buffered saline was then added to the donor side of the membrane, and phosphate buffered saline without compound was added to the acceptor side. The PAMPA plate was left at room temperature for 5 h; after which time, an aliquot (100 μL) was then removed from both acceptor and donor compartments and mixed with acetonitrile (80 μL) containing an internal standard: donepezil at 50 ng/mL). The samples were centrifuged (10 min, 5 °C, 3270g) to sediment precipitated protein and sealed prior to UPLC-MS/MS analysis using a Quattro Premier XE (Waters Corp, USA). Pe was calculated as shown in the below equation. [drawing 2] where CA(t) = peak area of compound present in acceptor well at time (t) = 18 000 s; Cequi = [CD(t) × VD + CA(t) × VA]/(VD + VA); A = filter area; VD = donor well volume; VA = acceptor well volume; t = incubation time; CD(t) = peak area of compound present in donor well at time (t) = 18 000 s. Recovery of compound from donor and acceptor wells was calculated, and data was only accepted when recovery exceeded 70%.

[9] = system: M. tuberculosis H37Rv; experiment: H37Rv MIC in GAST medium; assay type: cell-based, Mycobacterium tuberculosis
[10] = system: HepG2; details: human
[11] = mouse liver microsomes
[12] = system: M. tuberculosis H37Rv; experiment: Extracellular flux analysis (oxygen consumption rate); details: 1 at 39 μM, 7 at 45 μM
[13] = system: MTb H37Rv; experiment: Intracellular ATP levels (BacTiter-Glo); details: 24 h drug exposure
[14] = system: M. tuberculosis; experiment: microbe, parasite or virus in culture; assay type: cell-based; details: Mycobacterium tuberculosis; read-out: MIC (internal control reference compound)
[15] = target: T1, recombinant MBP-MtNdh (MTb NDH-2); design: method as in PMID 15767566; details: range covering Figure 6 and literature; read-out: IC50 against NDH-2 (text, chlorpromazine); cited from earlier work
[16] = system: cyd knockout strain (cydC::aph); assay type: cell-based, Mycobacterium tuberculosis
[17] = system: piniBAC reporter strain; assay type: cell-based, Mycobacterium tuberculosis; details: upregulation of iniBAC promoter
[18] = Calculated properties (StarDrop)
[19] = assay type: in vitro ADME; details: female, CD1, mouse, 0.5 μM, pH 7.4
Protocol: Test compound (0.5 μM) was incubated with female CD1 mouse liver microsomes (Xenotech LLC; 0.5 mg/mL, 50 mM potassium phosphate buffer, pH 7.4), and the reaction started with addition of excess NADPH (8 mg/mL, 50 mM potassium phosphate buffer, pH 7.4). Immediately, at time zero, and then at 3, 6, 9, 15, and 30 min, an aliquot (50 μL) of the incubation mixture was removed and mixed with acetonitrile (100 μL) to stop the reaction. Internal standard was added to all samples; the samples were centrifuged to sediment precipitated protein, and the plates were then sealed prior to UPLC-MS/MS analysis using a Quattro Premier XE (Waters Corporation, USA). XLfit (IDBS, UK) was used to calculate the exponential decay and consequently the rate constant (k) from the ratio of peak area of test compound to internal standard at each time point. The rate of intrinsic clearance (Cli) of each test compound was then calculated using the following calculation. [drawing 1] where V (mL/mg protein) is the incubation volume/mg protein added and microsomal protein yield is taken as 52.5 mg protein/g liver. Verapamil (0.5 μM) was used as a positive control to confirm acceptable assay performance.

[20] = female, C57Bl/6, mouse, in vivo, po
[21] = Mycobacterium tuberculosis, H37RV, read-out: GAST MIC
[22] = Mycobacterium tuberculosis, H37RV, read-out: GAST MIC in ng/mL
[23] = female, C57Bl/6, mouse, in vivo

O=C(CSc1nc2ccccc2c(=O)[nH]1)NCC1CCC(F)(F)CC1 [Compound 11, N-((4,4-Difluorocyclohexyl)methyl)-2-((4-oxo-3,4-dihydroquinazolin-2-yl)thio)acetamide]
MIC ([1]; read-out: 7H9-ADC MIC): 1.1 µM
MIC ([1]; read-out: 7H9-ADC MIC in ng/mL): 294 ng/mL
AUC(0-t) [2, 20]: 2140 ng·h/mL
Cmax [2, 20]: 1110 ng/mL
IC50 [3]: 0.026 ± 0.006 µM
PPB (% unbound) [4]: 21 % unbound
chromatographic logD [5]: 1.6
Kinetic solubility [6]: >250 µM
solubility kinetic [6]: 250 µM (≈ 91.9 µg/mL)
IC50 [7]: > 50 µM
Papp at 5 h, 10 μM [8]: 6.5 ×10⁻⁶ cm/s
MIC [9, 21]: 0.8 µM
MIC [9, 22]: 294 ng/mL
MIC ([9]; read-out: GAST MIC): 0.8 µM

O=C(CSc1nc2ccccc2c(=O)[nH]1)NC1CCC(F)(F)CC1 [Compound 7, N-(4,4-Difluorocyclohexyl)-2-((4-oxo-3,4-dihydroquinazolin-2-yl)thio)acetamide]
MIC ([1]; read-out: 7H9-ADC MIC): 0.4 µM
MIC ([1]; read-out: 7H9-ADC MIC in ng/mL): 141 ng/mL
Clb [2, 23]: 39 mL/min/kg
Vd [2, 23]: 1 L/kg
bioavailability [2, 23]: 29%
AUC(0-t) [2, 20]: 1120 ng·h/mL
Cmax [2, 20]: 399 ng/mL
AUC ([2]; female, C57Bl/6, mouse, 5 mg/kg, read-out: AUC at 5 mg/kg oral (converted)): 9430 ng·h/mL
AUC ([2]; female, C57Bl/6, mouse, 30 mg/kg, read-out: AUC at 30 mg/kg oral (converted)): 2190 ng·h/mL
AUC ([2]; female, C57Bl/6, mouse, 100 mg/kg, read-out: AUC at 100 mg/kg oral (converted)): 2200 ng·h/mL
half-life ([2]; female, C57Bl/6, whole blood, C57 mouse PK at 3 iv and 10 po (mg/kg), 1 free base, 7 HCl salt): 1.3 h
Dose linearity (AUC comparison) ([2]; mouse, in vivo, po, 100 mg/kg): no dose linearity was observed
IC50 [3]: 0.0066 ± 0.004 µM
HepG2 cytotoxicity (in words) [10]: no HepG2 cytotoxicity was observed
PPB (% unbound) [4]: 13 % unbound
chromatographic logD [5]: 1.5
Kinetic solubility [6]: 111 (HCl salt) μM
solubility kinetic [6]: 105 µM (≈ 37.1 µg/mL)
Mouse microsomal metabolite identification [11]: a small amount of amide bond cleavage as well as oxidation of the quinazolin-4(3H)-one ring
Human microsomal metabolite identification (human liver microsomes): oxidation of the quinazolinone ring
GSH trapping: adducts formed (with and without human liver microsomes): GSH adducts 12 and 13, without microsomal activation
IC50 [7]: > 50 µM
Papp at 5 h, 10 μM [8]: 6.4 ×10⁻⁶ cm/s
MIC [9, 21]: 0.4 µM
MIC [9, 22]: 141 ng/mL
Effect on maximal respiration after CCCP uncoupling ([12]; CCCP 3 μM, compared to untreated control): significantly diminished maximal respiration
Effect on basal MTb OCR ([12]; ~45 min, glucose or palmitate): minimal effect

COc1nc2ccc(Br)cc2cc1[C@@H](c1ccccc1)[C@@](O)(CCN(C)C)c1cccc2ccccc12 [bedaquiline]
Cellular ATP levels in MTb [13]: depletion of cellular ATP levels

NNC(=O)c1ccncc1 [Isoniazid, isoniazid]
MIC [14]: 0.2 µM (≈ 0.0274 µg/mL)

CN(C)CCCN1c2ccccc2Sc2ccc(Cl)cc21 [CPZ, chlorpromazine, reference compound]
IC50 [15]: 10 to 25 µM
IC50 [3]: 25 ± 2 µM

O=C(CSc1nc2ccccc2c(=O)[nH]1)NCc1ccccc1 [Compound 2]
MIC ([1]; read-out: 7H9-ADC MIC): 4.5 µM
IC50 [3]: 0.51 ± 0.05 µM
chromatographic logD [5]: 1.5
Cyd KO reporter [16]: Not likely QcrB inhibitor
solubility kinetic [6]: 109 µM (≈ 35.5 µg/mL)
pini-LUC reporter [17]: Not likely cell wall inhibitor
PFI [18]: 4.3
Microsomal Cli, mouse [19]: Mouse 1.6 mL/min/g
MIC [9, 21]: 5.9 µM
